No end group written: not given here.
Tests used:
[1] = tested on: E6AP mRNA in HCT116 cells; experiment: siRNA AD-8724 delivery into HCT116 cells, inhibition of E6AP mRNA expression by bDNA assay; type: cell-based, human
Protocol: All further experiments were carried out using HCT116 cells and inhibition of E6AP expression as readout.
HCT116-cells were obtained from the American Type Culture Collection (ATCC# CCL-247). They were cultured in McCoy's 5A medium (Biochrom AG, Berlin, Germany, Cat.# F1015) containing 10% fetal calf serum (FCS; Biochrom AG, Berlin, Germany, Cat.# S0115) and 2 mM L-Glutamin (Biochrom AG, Berlin, Germany, Cat.#: K0283) (standard growth medium). For incubation with peptide/siRNA, complexes, the medium was replaced by serum-free McCoy's 5A medium containing 2 mM L-Glutamin (serum free medium). After incubation with complexes for 4 h, McCoy's 5A medium containing 30% fetal calf serum and 2 mM L-Glutamin (triple FCS medium) was added to restore an overall 10% FCS in the medium.
The E6AP-specific siRNA denoted AD-8724 herein was used, having the following sequences: antisense strand: 5′-ucacauuccacguuaggugTsT-3′ (SEQ ID NO:51), sense strand 5′-caccuaacguggaaugugaTsT-3′; (SEQ ID NO:52; lower case letters: ribonucleotides; s: phosphorothioate backbone linkage). As a negative control, an siRNA specific for eGFP, denoted AD-5107 herein, was used, having the following sequences: antisense strand: 5′-aagucgugcugcuucauguggOMesuOMesc-3′ (SEQ ID NO:19), sense strand 5′-[…]-3′ (SEQ ID NO:18; lower case letters: ribonucleotides; subscript OMe: 2′-O-methyl-ribonucleotide; s: phosphorothioate backbone linkage). In addition to the non-specific control siRNA AD-5107, mock transfected cells treated with standard growth medium only were used as negative controls. As a positive control, AD-8724 was transfected into the cells using Lipofectamine2000™ (Invitrogen, Karlsruhe, Germany, Cat. No. 11668-019). As a further control, AD-5107 was transfected into cells using Lipofectamine2000™. All assays were performed in quadruplicates.
SiRNA/peptide complexes were prepared by mixing a solution of the siRNA in deionized water with a solution of the peptide in deionized water at the appropriate concentrations to give the desired ratio of siRNA/peptide at the desired concentration of the complex. The mixture was incubated at room temperature for 30 min and kept at 4° C. until use, and used within 24 h.
For transfections with siRNA/peptide complexes, 1.5×10^5 HCT116-cells per well in 150 μl standard growth medium were seeded into polystyrene 96 well plates and grown for 24 h at 37° C. in an atmosphere containing 5% CO2. The medium was removed by aspiration, and 90 μl serum-free medium and 10 μl of siRNA/peptide complex solution were added. Cells were incubated for 4 h at 37° C./5% CO2, 50 μl triple FCS medium were added, and the cells incubated for another 20 h under identical conditions. Subsequently, E6AP mRNA content was determined as described below.
For Lipofectamine2000™ transfections, 0.5 μl Lipofectamine2000™ were mixed with 12 μl OptiMem™ (Invitrogen, Karlsruhe, Germany, Cat. No. 11058-021) and incubated for 15 min. 1 μl of a 5 μM solution of the respective siRNA in PBS (Biochrom AG, Berlin, Germany, Cat-No: L182-05) were added to 11.5 μl OptiMeM™, mixed with the Lipofectamine2000™/OptiMem™ solution, and incubated for further 15 min. 1.5×10^5 HCT116-cells per well in 150 μl standard growth medium were grown for 24 h as described above, the growth medium removed from the cells by aspiration, and 75 μl fresh standard growth medium and the 25 μl of the siRNA/Lipofectamine2000™ mix were added to the well, to give a final siRNA concentration of 50 nM. The cells were incubated for 24 h at 37° C./5% CO2 and E6AP mRNA concentration determined.
The QuantiGene™ bDNA-kit from Panomics, Inc., Fremont, USA, was used according to manufacturer's instructions. Briefly, cells were lysed by adding 50 μl of Lysis Mixture (from QuantiGene bDNA-kit) to each well and incubation at 53° C. for 1 h. […]

eGFP-mRNA = experiment: Influence of peptide/siRNA ratio on siRNA activity in HCT116 cells; type: cell-based; settings: 250 nM siRNA
Protocol: The optimal ratio of (peptide):(anionic substance) for complex formation, was determined in section 3 above to lie in the range of 8:1 to 13:1 by titrating a fixed concentration of the anionic substance with increasing amounts of the peptide, and monitoring complex formation by electrophoresis of the mixture. To further validate and possibly narrow down the optimum ratio of peptide/anionic substance, an assay with a functional readout was performed. HCT116 cells were incubated with siRNA complexes as described above at concentrations such that the amount of siRNA in the incubation mixture corresponds to a 250 nM concentration of the siRNA, and the peptide/siRNA ratio was 8:1, 10:1, 12:1, or 14:1.

cell viability = experiment: CytoTox ONE cell viability assay; type: cell-based; settings: 2.5 μM peptide
Protocol: Delivery of siRNAs was tested in 7 different cell lines we obtained from the American Type Culture Collection, ATCC, via LCG Promochem GmbH, Wesel, Germany (PC12, ATTC# CRL-1721; HCT116, ATCC# CCL-247; C33A, ATCC# HTB-31; H441, ATCC# HTB-174; NMuLi, ATCC# CRL-1638; HepG2, ATCC# HB-8065; HeLa S3, ATCC# CCL2.2) and in the cell line KB-BCL2-GFP, as described in co-pending U.S. Ser. No. 10/941,663. Target mRNA quantification was performed using the QuantiGene™ bDNA-kit from Panomics, Inc., Fremont, USA, according to the manufacturers instructions, and essentially as described below for H441 cells. Genes constitutively expressed in the various cell lines were chosen as targets and results normalized to GAPDH expression. siRNA concentration was 250 nM, the concentration of the peptide was chosen as given by the molar ratio peptide/siRNA shown in Table 1. Cytotoxicity of peptides was evaluated employing the CytoTox-ONE™ assay (Promega GmbH, Mannheim, Germany).
Potential cytotoxic effects as mediator of inhibition were ruled out by determining cell viability in the presence of 2.5 μM of ppTG20, AP-0, AP-1, AP-27, AP-30, AP32 and AP-34 using the CytoTox ONE™ assay (Promega GmbH, Mannheim, Germany).

[2] = siRNA AD-8724 250 nM, molar peptide/siRNA ratio 12.5:1

Sequence	remaining E6AP mRNA (in % of mock) [1, 2]	Remaining eGFP-mRNA in % of mock-transfected controls (eGFP-mRNA; peptide/siRNA ratio 8:1)	Remaining eGFP-mRNA in % of mock-transfected controls (eGFP-mRNA; peptide/siRNA ratio 10:1)	Remaining eGFP-mRNA in % of mock-transfected controls (eGFP-mRNA; peptide/siRNA ratio 12:1)	Remaining eGFP-mRNA in % of mock-transfected controls (eGFP-mRNA; peptide/siRNA ratio 14:1)	other results
RLFPALLRLLRRLWRLLLRA [AP-6]	41 ± 11%	62 ± 9%	36 ± 8%	63 ± 18%	54 ± 9%	
HLFRALHRLLRHLWRLLHRA [AP-12]	94 ± 31%					
GAFRAAARLLRSLWRLLLRA [AP-23]	82 ± 6%					
RLFRALLRLLRSLWRLLLRAHHHHH [AP-27]						cell viability (cell viability): None of these peptides led to a significant alteration of cell viability
HLFRHLLRLLRHLWRHLLRA [AP-15]	77 ± 39%	32 ± 5%	26 + 2%	22 ± 4%	43 ± 5%	
GAYRAALRLLRSLWRLLSRA [AP-26]	78 ± 6%					
GLFRALLRLLRSLWRLLRRA [AP-2]	58 ± 7%	54 ± 6%	35 ± 15%	32 ± 11%	36 ± 7%	
HLFRHLLRLLRRLWHLLHRA [AP-14]	56 ± 21%	41 ± 2%	41 ± 12%	19 ± 2%	39 ± 7%	
GLFRALLRLLRSLWRSLSRA [AP-18]	49 ± 3%					
RLFRALLRLLRSLWRLLRRAHHHHH [AP-28]						remaining E6AP mRNA (in % of mock) ([1]; AD-8724, siRNA/peptide conc. 25 nM/250 nM): 105 ± 13%; remaining E6AP mRNA (in % of mock) ([1]; AD-8724, siRNA/peptide conc. 250 nM/2.5 μM): 30 ± 9%; remaining E6AP mRNA (in % of mock) ([1]; AD-8724, siRNA/peptide conc. 1 μM/10 μM): 18 ± 2%
HHHHHRLFRALLRLLRSLWRLLLRA [AP-30]						cell viability (cell viability): None of these peptides led to a significant alteration of cell viability
GLFRALLRLLRSLWRALARA [AP-22]	32 ± 14%					
RLFRALLRLLRSLWRLLLRA [AP-1]						cell viability (cell viability): None of these peptides led to a significant alteration of cell viability
GLFRALLRLLRSLWRSLLRA [AP-17]	37 ± 9%					
HLFRALLRLLRHLWRLLHRA [AP-11]	62 ± 15%	27 ± 5%	30 ± 8%	30 ± 5%	24 ± 5%	
GLFRALLRLLRSLWRLLLRA [ppTG20, reference compound]						cell viability (cell viability): None of these peptides led to a significant alteration of cell viability
